In patent US20220298141A1, “ENZYME INHIBITORS” (KALVISTA PHARMACEUTICALS LIMITED, priority 2019, published 2022):

target: T1, Human Factor XIIa (Homo sapiens, UniProt P00748); test: Determination of Factor XIIa inhibitory activity in vitro (fluorogenic substrate H-DPro-Phe-Arg-AFC); type: biochemical; conditions: Human Factor XIIa (Enzyme Research Laboratories), 25° C., read-out: Human FXIIa IC50
T1 construct: purchased Enzyme Research Laboratories
T1 sequence (P00748 373-615 limits assumed): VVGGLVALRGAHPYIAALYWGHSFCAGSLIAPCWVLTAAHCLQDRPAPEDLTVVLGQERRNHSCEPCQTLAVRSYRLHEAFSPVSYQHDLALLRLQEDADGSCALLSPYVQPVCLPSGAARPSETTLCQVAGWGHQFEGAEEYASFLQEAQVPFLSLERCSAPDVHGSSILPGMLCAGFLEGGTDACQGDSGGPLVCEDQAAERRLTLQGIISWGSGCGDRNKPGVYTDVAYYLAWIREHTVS
T1 sequence (P00748 20-372 partner limits assumed): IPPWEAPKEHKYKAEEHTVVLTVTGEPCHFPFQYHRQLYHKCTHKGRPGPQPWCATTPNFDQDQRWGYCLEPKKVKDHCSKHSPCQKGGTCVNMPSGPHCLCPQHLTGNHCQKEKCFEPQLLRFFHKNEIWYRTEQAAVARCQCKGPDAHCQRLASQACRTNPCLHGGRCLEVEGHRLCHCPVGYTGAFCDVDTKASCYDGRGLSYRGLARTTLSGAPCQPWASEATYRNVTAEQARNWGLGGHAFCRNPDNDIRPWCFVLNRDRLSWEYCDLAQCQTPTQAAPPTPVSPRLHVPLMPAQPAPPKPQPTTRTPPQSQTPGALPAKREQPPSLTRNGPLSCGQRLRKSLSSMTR
Protocol: Determination of the % Inhibition for FXIIa
Factor XIIa inhibitory activity in vitro was determined using standard published methods (see e.g. Shori et al., Biochem. Pharmacol., 1992, 43, 1209; Baeriswyl et al., ACS Chem. Biol., 2015, 10 (8) 1861; Bouckaert et al., European Journal of Medicinal Chemistry 110 (2016) 181). Human Factor XIIa (Enzyme Research Laboratories) was incubated at 25° C. with the fluorogenic substrate H-DPro-Phe-Arg-AFC and various concentrations of the test compound. Residual enzyme activity (initial rate of reaction) was determined by measuring the […] and the IC50 value for the test compound was determined.

Row | Structure (SMILES) | IC50 [µM]
1 | Nc1nccc2cc(CNC(=O)c3cc(Cl)cnc3NCc3ccccn3)ccc12 [Example 1.43] | 3 to 10
2 | CN(C)c1ccc(Oc2ncc(C(=O)NCc3ccc4c(N)nccc4c3)cc2Cl)cc1 [Example 13.10] | 10 to 40
3 | COc1cccc(Oc2ncc(C(=O)NCc3ccc4c(N)nccc4c3)cc2Cl)c1 [Example 13.11] | 10 to 40
4 | COc1ccccc1Oc1ncc(C(=O)NCc2ccc3c(N)nccc3c2)cc1Cl [Example 13.12] | 10 to 40
5 | Cn1cnc2cc(Oc3ncc(C(=O)NCc4ccc5c(N)nccc5c4)cc3Cl)ccc21 [Example 13.13] | 3 to 10
6 | Nc1nccc2cc(CNC(=O)c3cnc(Oc4cccc(N5CCCC5=O)c4)c(Cl)c3)ccc12 [Example 13.14] | 10 to 40
7 | CS(=O)(=O)c1ccc(Oc2ncc(C(=O)NCc3ccc4c(N)nccc4c3)cc2Cl)cc1 [Example 13.15] | 10 to 40
8 | CC(C)NC(=O)N(C)c1ccc(Oc2ncc(C(=O)NCc3ccc4c(N)nccc4c3)cc2Cl)cc1 [Example 13.16] | 3 to 10
9 | CN1CCC(COc2ncc(C(=O)NCc3ccc4c(N)nccc4c3)cc2Cl)CC1 [Example 13.17] | 10 to 40
10 | Nc1nccc2cc(CNC(=O)c3cnc(OCCN4CCCC4)c(Cl)c3)ccc12 [Example 13.18] | 10 to 40
11 | CN(C)CCOc1ncc(C(=O)NCc2ccc3c(N)nccc3c2)cc1Cl [Example 13.19] | 10 to 40
12 | Nc1nccc2cc(CNC(=O)c3cnc(OCc4ccccn4)c(Cl)c3)ccc12 [Example 13.20] | 10 to 40
13 | Nc1nccc2cc(CNC(=O)c3cnc(OCc4ccncc4)c(Cl)c3)ccc12 [Example 13.21] | 10 to 40
14 | CCN(CC)CCCOc1ncc(C(=O)NCc2ccc3c(N)nccc3c2)cc1Cl [Example 13.22] | 10 to 40
15 | CN(C)CCCOc1ncc(C(=O)NCc2ccc3c(N)nccc3c2)cc1Cl [Example 13.23] | 10 to 40
16 | Nc1nccc2cc(CNC(=O)c3cnc(Oc4ccc(N5CCNCC5)cc4)c(Cl)c3)ccc12 [Example 13.24, N-((1-aminoisoquinolin-6-yl)methyl)-5-chloro-6-(4-(piperazin-1-yl)phenoxy)nicotinamide] | 1 to 3
17 | Nc1nccc2cc(CNC(=O)c3cnc(Oc4cccc(N5CCNCC5)c4)c(Cl)c3)ccc12 [Example 13.25] | 3 to 10
18 | CN1CCCN(c2ncc(Cl)cc2C(=O)NCc2ccc3c(N)nccc3c2)CC1 [Example 16.01] | 10 to 40
19 | Nc1nccc2cc(CNC(=O)c3cc(Cl)cnc3N3CC(O)C3)ccc12 [Example 16.02] | 10 to 40
20 | Nc1nccc2cc(CNC(=O)c3cc(Cl)cnc3N3CCN(c4ccncc4)CC3)ccc12 [Example 16.03] | 10 to 40

More lines, now with the values ahead:

Row | IC50 [µM] | Structure (SMILES)
21 | 10 to 40 | COc1ccccc1-c1cncc(C(=O)NCc2ccc3c(N)nccc3c2)c1 [Example 19.01, N-((1-aminoisoquinolin-6-yl)methyl)-5-(2-methoxyphenyl)nicotinamide]
22 | 10 to 40 | Nc1nccc2cc(CNC(=O)c3cncc(Br)c3)ccc12 [Example 19.02, N-((1-aminoisoquinolin-6-yl)methyl)-5-bromonicotinamide]
23 | 10 to 40 | Nc1nccc2cc(CNC(=O)c3cnc4[nH]ccc4c3)ccc12 [Example 19.03, 1H-Pyrrolo[2,3-b]pyridine-5-carboxylic acid (1-amino-isoquinolin-6-ylmethyl)-amide]
24 | 10 to 40 | Nc1nccc2cc(CNC(=O)c3cncc(Cl)c3)ccc12 [Example 19.04, N-((1-aminoisoquinolin-6-yl)methyl)-5-chloronicotinamide]
25 | 10 to 40 | Nc1nccc2cc(CNC(=O)c3cccc(Cl)c3)ccc12 [Example 19.05, N-((1-aminoisoquinolin-6-yl)methyl)-3-chlorobenzamide]
26 | 3 to 10 | Nc1nccc2cc(CNC(=O)c3cnc(Cl)c(Cl)c3)ccc12 [Example 19.06, N-(1-Amino-isoquinolin-6-ylmethyl)-5,6-dichloro-nicotinamide]
27 | 3 to 10 | Nc1nccc2cc(CNC(=O)c3cc(Cl)cnc3Oc3ccc(N4CCCC4=O)cc3)ccc12 [Example 22.01, N-((1-aminoisoquinolin-6-yl)methyl)-5-chloro-2-(4-(2-oxopyrrolidin-1-yl)phenoxy)nicotinamide]
28 | 10 to 40 | Cn1cnc2cc(Oc3ncc(Cl)cc3C(=O)NCc3ccc4c(N)nccc4c3)ccc21 [Example 22.02]
29 | 10 to 40 | CN(C)c1ccc(Oc2ncc(Cl)cc2C(=O)NCc2ccc3c(N)nccc3c2)cc1 [Example 22.03]
30 | 10 to 40 | CN(C(=O)C(C)(C)C)c1ccc(Oc2ncc(Cl)cc2C(=O)NCc2ccc3c(N)nccc3c2)cc1 [Example 22.04]
31 | 10 to 40 | Nc1nccc2cc(CNC(=O)c3cc(Cl)cnc3Oc3cccc(N4CCCC4=O)c3)ccc12 [Example 22.05]
32 | 10 to 40 | Nc1nccc2cc(CNC(=O)c3cc(Cl)cnc3OCCN3CCCCC3)ccc12 [Example 22.06]
33 | 10 to 40 | CN1CCC(COc2ncc(Cl)cc2C(=O)NCc2ccc3c(N)nccc3c2)CC1 [Example 22.07]
34 | 10 to 40 | Nc1nccc2cc(CNC(=O)c3cc(Cl)cnc3OCCN3CCCC3)ccc12 [Example 22.08]
35 | 10 to 40 | CN(C)CCOc1ncc(Cl)cc1C(=O)NCc1ccc2c(N)nccc2c1 [Example 22.09]
36 | 10 to 40 | CCN(CC)CCCOc1ncc(Cl)cc1C(=O)NCc1ccc2c(N)nccc2c1 [Example 22.10]
37 | 10 to 40 | Nc1nccc2cc(CNC(=O)c3cc(Cl)cnc3OCCCN3CCCCC3)ccc12 [Example 22.11]

Row | IC50 [µM] | Structure (SMILES)
38 | 3 to 10 | Nc1nccc2cc(CNC(=O)c3cc(Cl)cnc3Oc3ccc(N4CCNCC4)cc3)ccc12 [Example 22.12]
39 | 10 to 40 | Nc1nccc2cc(CNC(=O)c3cc(Cl)cnc3Oc3cccc(N4CCNCC4)c3)ccc12 [Example 22.13]
40 | 10 to 40 | CN(Cc1ccccc1)c1ncc(Cl)cc1C(=O)NCc1ccc2c(N)nccc2c1 [Example 28.01, N-((1-aminoisoquinolin-6-yl)methyl)-2-(benzyl(methyl)amino)-5-chloronicotinamide]
41 | 10 to 40 | CN(CC1CCN(c2ccncc2)CC1)c1ncc(Cl)cc1C(=O)NCc1ccc2c(N)nccc2c1 [Example 28.02, N-((1-aminoisoquinolin-6-yl)methyl)-5-chloro-2-(methyl((1-(pyridin-4-yl)piperidin-4-yl)methyl)amino)nicotinamide]
42 | 3 to 10 | CN(C)CCCOc1cccc(CN(C)c2ncc(Cl)cc2C(=O)NCc2ccc3c(N)nccc3c2)c1 [Example 28.03, N-((1-aminoisoquinolin-6-yl)methyl)-5-chloro-2-((3-(3-(dimethylamino)propoxy)benzyl)(methyl)amino)nicotinamide]
43 | 10 to 40 | CN(c1ncc(Cl)cc1C(=O)NCc1ccc2c(N)nccc2c1)C1CCOCC1 [Example 28.04, N-((1-aminoisoquinolin-6-yl)methyl)-5-chloro-2-(methyl(tetra hydro-2H-pyran-4-yl)amino)nicotinamide]
44 | 10 to 40 | CN(c1ccccc1)c1ncc(Cl)cc1C(=O)NCc1ccc2c(N)nccc2c1 [Example 28.05, N-((1-aminoisoquinolin-6-yl)methyl)-5-chloro-2-(methyl(phenyl)amino)nicotinamide]
45 | 10 to 40 | CN(c1cccc(Cl)c1)c1ncc(Cl)cc1C(=O)NCc1ccc2c(N)nccc2c1 [Example 28.06]
46 | 10 to 40 | Nc1nccc2cc(CNC(=O)c3cncc(-c4ccccc4)c3)ccc12 [Example 29.01]
47 | 3 to 10 | Nc1nccc2cc(CNC(=O)c3cncc(-c4ccnn4Cc4ccccc4)c3)ccc12 [Example 29.03, N-((1-aminoisoquinolin-6-yl)methyl)-5-(1-benzyl-1H-pyrazol-5-yl)nicotinamide]
48 | 10 to 40 | Nc1nccc2cc(CNC(=O)c3cncc(CN4CCNCC4)c3)ccc12 [Example 29.04]
49 | 3 to 10 | Nc1nccc2cc(CNC(=O)c3cccc(CN4CCN(CC5CCCC5)CC4)c3)ccc12 [Example 29.09]
50 | 3 to 10 | CN1CCN(Cc2cc(Cl)cc(C(=O)NCc3ccc4c(N)nccc4c3)c2)CC1 [Example 29.10]
51 | 3 to 10 | Nc1nccc2cc(CNC(=O)c3cc(Cl)cc(CN4CCN(CC5CCCC5)CC4)c3)ccc12 [Example 29.11, N-((1-aminoisoquinolin-6-yl)methyl)-3-chloro-5-((4-(cyclopentylmethyl)piperazin-1-yl)methyl)benzamide]
52 | 3 to 10 | C[C@@H]1CCC[C@H](C)N1CC(=O)Nc1cc(Cl)cc(C(=O)NCc2ccc3c(N)nccc3c2)c1 [Example 32.05]
53 | 10 to 40 | COc1ccc(-n2cc(C(F)F)nn2)c(CNC(=O)c2nccnc2NCC2CCN(C)CC2)c1F [Example 33.22]
54 | 10 to 40 | Cc1cc(CN)cc(C)c1CNC(=O)c1nccnc1NCC1CCN(C)CC1 [Example 33.23]

target: T2, Human FXIa (Homo sapiens, UniProt P03951); test: Determination of FXIa inhibitory activity in vitro (fluorogenic substrate Z-Gly-Pro-Arg-AFC); type: biochemical; conditions: Selectivity, Human FXIa (Enzyme Research Laboratories), 25° C.
T2 construct: purchased Enzyme Research Laboratories
T2 sequence (P03951 388-625 limits assumed): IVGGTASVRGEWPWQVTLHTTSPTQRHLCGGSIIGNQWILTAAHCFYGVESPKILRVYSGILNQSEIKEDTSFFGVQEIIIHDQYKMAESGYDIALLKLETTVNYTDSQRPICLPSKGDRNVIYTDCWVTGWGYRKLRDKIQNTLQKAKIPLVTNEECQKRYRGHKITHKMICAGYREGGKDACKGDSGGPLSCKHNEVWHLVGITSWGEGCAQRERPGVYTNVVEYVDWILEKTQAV
T2 sequence (P03951 19-387 partner limits assumed): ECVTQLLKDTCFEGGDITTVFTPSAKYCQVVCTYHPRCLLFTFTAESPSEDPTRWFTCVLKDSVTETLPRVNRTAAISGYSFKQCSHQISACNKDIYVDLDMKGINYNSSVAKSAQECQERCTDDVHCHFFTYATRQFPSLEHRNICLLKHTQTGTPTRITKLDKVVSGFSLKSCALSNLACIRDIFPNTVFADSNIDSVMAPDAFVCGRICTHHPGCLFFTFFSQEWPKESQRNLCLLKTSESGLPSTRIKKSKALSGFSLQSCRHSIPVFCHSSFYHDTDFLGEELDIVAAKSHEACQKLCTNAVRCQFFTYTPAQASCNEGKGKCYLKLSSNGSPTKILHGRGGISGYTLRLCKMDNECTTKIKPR

Row | IC50 [µM] | Structure (SMILES)
55 | > 40 | Nc1nccc2cc(CNC(=O)c3cc(Cl)cnc3NCc3ccccn3)ccc12 [Example 1.43]
